Experimental data as given in patent US10329309B2, “3-(3H-imidazo[4,5-B]pyridin-2-yl)-1H-pyrazolo[4,3-B]pyridines and therapeutic uses thereof” (Samumed, LLC, priority 2015, dated 2019).

What was measured:
Format in all cases: cell-based
SW480 colon cancer cells = assay: Cell viability assay (CellTiter-Blue), four days; conditions: Homo sapiens, 96 h; for EC50: CellTiter-Blue cell viability; for inhibition at 10 µM: read-out: percent inhibition at 10 μM (given for EC50 of >10 μM)
Outline: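 Four-day viability readout in SW480 cells: compound at 0.0045–10 μM (1:3 series), DMSO controls in eight replicates, CellTiter-Blue fluorescence after ~3 h. Values are regression-derived EC50s, or percent inhibition at 10 μM when EC50 exceeds 10 μM.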

[1] = system: primary human mesenchymal stem cells (hMSCs); assay: Induction of chondrogenesis in primary human mesenchymal stem cells (nodule imaging, Rhodamine B/Nile Red); conditions: hMSC chondrogenesis; for Emax: TGF-β3 as positive control, read-out: Max. Activity as % TGF-β3 activity; for EC50: concentration required to induce 50% levels of chondrogenesis vs TGF-β3, read-out: Conc (nM) of 50% TGF-β3 activity
Outline: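 hMSCs (passage 3–6) in incomplete chondrogenic induction medium were dosed at 2700–10 nM (96-well, 6-point) or 5000–2.2 nM (384-well, 8-point), 0.03% DMSO final, for 6 days at 37° C. Fixed nodules stained with Rhodamine B/Nile Red were imaged; nodule area normalized to DMSO wells gave EC50, maximum activity and dose at maximum, with TGF-β3 (10 ng/mL) as positive control.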

IL-6 (THP-1 cells) = assay: Inhibition of IL-6 in LPS-stimulated THP-1 monocytes (HTRF); conditions: Homo sapiens; for EC50: LPS 500 ng/mL, IL-6 by HTRF; for inhibition at 10 µM: LPS stimulated, IL-6, at 10 μM, read-out: percent inhibition at 10 μM (given for EC50 of >10 μM)
Outline: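 IL-6 release was read as the HTRF 665/620 nm ratio after 22 h of 500 ng/mL LPS at 37 °C. Before stimulation, THP-1 cells kept 24 h in 1% FBS were exposed 2 h to a 10-point 1:3 compound series starting at 10 μM, in 0.1% DMSO. Four-parameter EC50s came from DMSO-normalized duplicates, with % inhibition at 10 μM reported beyond 10 μM.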

Row | EC50 (SW480 colon cancer cells) [nM] | EC50 [1] [nM] | EC50 (IL-6 (THP-1 cells)) [µM] | Structure (SMILES) | Emax [1] [%] | inhibition at 10 µM (IL-6 (THP-1 cells)) [%] | inhibition at 10 µM (SW480 colon cancer cells) [%]
1 | 551 | 30 | > 10 | O=C(Nc1cncc(-c2ccc3[nH]nc(-c4nc5c(-c6ccc(F)cc6)ccnc5[nH]4)c3n2)c1)C1CCC1 [Compound 49, N-(5-(3-(7-(4-fluorophenyl)-3H-imidazo[4,5-b]pyridin-2-yl)-1H-pyrazolo [4,3-b]pyridin-5-yl)pyridin-3-yl)cyclobutanecarboxamide] | 69 | 44 | –
2 | 1130 | – | 5.93 | CN(C)Cc1cncc(-c2ccc3[nH]nc(-c4nc5c(-c6cccc(F)c6)ccnc5[nH]4)c3n2)c1 [Compound 13, 1-(5-(3-(7-(3-fluorophenyl)-3H-imidazo[4,5-b]pyridin-2-yl)-1H-pyrazolo [4,3-b]pyridin-5-yl)pyridin-3-yl)-N,N-dimethylmethanamine] | 29 | – | –
3 | 580 | 30 | 1.33 | FC1(F)CCN(Cc2cncc(-c3ccc4[nH]nc(-c5nc6c(-c7ccsc7)ccnc6[nH]5)c4n3)c2)C1 [Compound 306, 5-(5-((3,3-difluoropyrrolidin-1-yl)methyl)pyridin-3-yl)-3-(7-(thiophen-3-yl)-3H-imidazo[4,5-b]pyridin-2-yl)-1H-pyrazolo[4,3-b]pyridine] | 77 | – | –
4 | 110 | 10 | 5.05 | CC(C)CC(=O)Nc1cncc(-c2ccc3[nH]nc(-c4nc5c(-c6ccc(Cl)s6)ccnc5[nH]4)c3n2)c1 [Compound 1037, N-(5-(3-(7-(5-chlorothiophen-2-yl)-3H-imidazo[4,5-b]pyridin-2-yl)-1H-pyrazolo [4,3-b]pyridin-5-yl)pyridin-3-yl)-3-methylbutanamide] | 67 | – | –
5 | 2000 | 10 | 0.424 | CC(C)Nc1cncc(-c2ccc3[nH]nc(-c4nc5c(-c6cccnc6)ccnc5[nH]4)c3n2)c1 [Compound 96, N-isopropyl-5-(3-(7-(pyridin-3-yl)-3H-imidazo[4,5-b]pyridin-2-yl)-1H-pyrazolo[4,3-b]pyridin-5-yl)pyridin-3-amine] | 113 | – | –
6 | 270 | 1670 | 0.161 | Cc1ccc(-c2ccnc3[nH]c(-c4n[nH]c5ccc(-c6cncc(NC(=O)C(C)C)c6)nc45)nc23)s1 [Compound 401, N-(5-(3-(7-(5-methylthiophen-2-yl)-3H-imidazo[4,5-b]pyridin-2-yl)-1H-pyrazolo[4,3-b]pyridin-5-yl)pyridin-3-yl)isobutyramide] | 66 | – | –
7 | 1100 | – | 5.54 | CN(C)CCOc1cncc(-c2ccc3[nH]nc(-c4nc5c(-c6cccc(F)c6)ccnc5[nH]4)c3n2)c1 [Compound 515, 2-((5-(3-(7-(3-fluorophenyl)-3H-imidazo[4,5-b]pyridin-2-yl)-1H-pyrazolo[4,3-b]pyridin-5-yl)pyridin-3-yl)oxy)-N,N-dimethylethan-1-amine] | 45 | – | –
8 | 1100 | – | > 10 | COc1cccc(-c2ccnc3[nH]c(-c4n[nH]c5ccc(-c6cncc(NC(=O)Cc7ccccc7)c6)nc45)nc23)c1 [Compound 1000, N-(5-(3-(7-(3-methoxyphenyl)-3H-imidazo[4,5-b]pyridin-2-yl)-1H-pyrazolo[4,3-b]pyridin-5-yl)pyridin-3-yl)-2-phenylacetamide] | 46 | 12.3 | –
9 | 5570 | – | 1.03 | Cc1ccncc1-c1ccc2[nH]nc(-c3nc4c(-c5cc(F)cc(CNS(C)(=O)=O)c5)ccnc4[nH]3)c2n1 [Compound 481, N-(3-fluoro-5-(2-(5-(4-methylpyridin-3-yl)-1H-pyrazolo[4,3-b]pyridin-3-yl)-3H-imidazo[4,5-b]pyridin-7-yl)benzyl)methanesulfonamide] | 47 | – | –
10 | 2820 | – | > 10 | CCNCc1cncc(-c2ccc3[nH]nc(-c4nc5c(-c6ccoc6)ccnc5[nH]4)c3n2)c1 [Compound 314, N-((5-(3-(7-(furan-3-yl)-3H-imidazo[4,5-b]pyridin-2-yl)-1H-pyrazolo[4,3-b]pyridin-5-yl)pyridin-3-yl)methyl)ethanamine] | 32 | 23.9 | –
11 | 540 | 10 | 7.5 | CN(C)c1cncc(-c2ccc3[nH]nc(-c4nc5c(-c6cccc(F)c6)ccnc5[nH]4)c3n2)c1 [Compound 7, 5-(3-(7-(3-fluorophenyl)-3H-imidazo[4,5-b]pyridin-2-yl)-1H-pyrazolo[4,3-b]pyridin-5-yl)-N,N-dimethylpyridin-3-amine] | 84 | – | –
12 | 2750 | 10 | > 10 | Clc1ccc(-c2ccnc3[nH]c(-c4n[nH]c5ccc(-c6cncc(CN7CCCC7)c6)nc45)nc23)s1 [Compound 1049, 3-(7-(5-chlorothiophen-2-yl)-3H-imidazo[4,5-b]pyridin-2-yl)-5-(5-(pyrrolidin-1-ylmethyl)pyridin-3-yl)-1H-pyrazolo[4,3-b]pyridine] | 74 | 36.2 | –
13 | 1600 | – | 0.023 | NC1CN(c2cncc(-c3ccc4[nH]nc(-c5nc6c(-c7cccc(F)c7)ccnc6[nH]5)c4n3)n2)C1 [Compound 510, 1-(6-(3-(7-(3-fluorophenyl)-3H-imidazo[4,5-b]pyridin-2-yl)-1H-pyrazolo[4,3-b]pyridin-5-yl)pyrazin-2-yl)azetidin-3-amine] | 46 | – | –
14 | > 10000 | 10 | > 10 | CCCCC(=O)Nc1cncc(-c2ccc3[nH]nc(-c4nc5c(-c6ccoc6)ccnc5[nH]4)c3n2)c1 [Compound 327, N-(5-(3-(7-(furan-3-yl)-3H-imidazo[4,5-b]pyridin-2-yl)-1H-pyrazolo[4,3-b]pyridin-5-yl)pyridin-3-yl)pentanamide] | 83 | 42.4 | 4.9
15 | > 10000 | 300 | > 10 | c1cncc(-c2ccc3[nH]nc(-c4nc5c(-c6cccnc6)ccnc5[nH]4)c3n2)c1 [Compound 88, 5-(pyridin-3-yl)-3-(7-(pyridin-3-yl)-3H-imidazo[4,5-b]pyridin-2-yl)-1H-pyrazolo [4,3-b]pyridine] | 95 | 36.6 | 42.2
16 | 695 | 30 | 1.8 | CC(C)Nc1cncc(-c2ccc3[nH]nc(-c4nc5c(-c6cc(F)cc(NCCN(C)C)c6)ccnc5[nH]4)c3n2)c1 [Compound 460, N^1-(3-fluoro-5-(2-(5-(5-(isopropylamino)pyridin-3-yl)-1H-pyrazolo[4,3-b]pyridin-3-yl)-3H-imidazo[4,5-b]pyridin-7-yl)phenyl)-N^2,N^2-dimethylethane-1,2-diamine] | 63 | – | –
17 | 109 | 10 | > 10 | O=C(Nc1cncc(-c2ccc3[nH]nc(-c4nc5c(-c6ccc(Cl)s6)ccnc5[nH]4)c3n2)c1)C1CCC1 [Compound 1056, N-(5-(3-(7-(5-chlorothiophen-2-yl)-3H-imidazo[4,5-b]pyridin-2-yl)-1H-pyrazolo [4,3-b]pyridin-5-yl)pyridin-3-yl)cyclobutanecarboxamide] | 102 | 40.6 | –
18 | 2040 | 2 | > 10 | Fc1cccc(-c2ccnc3[nH]c(-c4n[nH]c5ccc(-c6cnccn6)nc45)nc23)c1 [Compound 520, 3-(7-(3-fluorophenyl)-3H-imidazo[4,5-b]pyridin-2-yl)-5-(pyrazin-2-yl)-1H-pyrazolo[4,3-b]pyridine] | 63 | 19.5 | –
19 | 897 | 100 | > 10 | COc1cccc(-c2ccnc3[nH]c(-c4n[nH]c5ccc(-c6cccnc6)nc45)nc23)c1 [Compound 994, 3-(7-(3-methoxyphenyl)-3H-imidazo[4,5-b]pyridin-2-yl)-5-(pyridin-3-yl)-1H-pyrazolo[4,3-b]pyridine] | 50 | 50.2 | –
20 | 115 | 10 | > 10 | Cc1ncc(-c2ccc3[nH]nc(-c4nc5c(-c6cccc(F)c6)ccnc5[nH]4)c3n2)n1C [Compound 509, 5-(1,2-dimethyl-1H-imidazol-5-yl)-3-(7-(3-fluorophenyl)-3H-imidazo[4,5-b]pyridin-2-yl)-1H-pyrazolo[4,3-b]pyridine] | 97 | 17.5 | –
21 | 84 | 100 | 0.25 | Cc1ccc(-c2ccnc3[nH]c(-c4n[nH]c5ccc(-c6cncc(N)c6)nc45)nc23)s1 [Compound 395, 5-(3-(7-(5-methylthiophen-2-yl)-3H-imidazo[4,5-b]pyridin-2-yl)-1H-pyrazolo[4,3-b]pyridin-5-yl)pyridin-3-amine] | 118 | – | –
